Data as given in US20180243298A1, “TRPV3 MODULATORS” (AbbVie Inc., priority 2015, published 2018).

Target: T1, human TRPV3 (Homo sapiens, UniProt Q8NET8)
T1 construct: expressed in transfected cells; host or cells: HEK293
T1 sequence (Q8NET8 1-790): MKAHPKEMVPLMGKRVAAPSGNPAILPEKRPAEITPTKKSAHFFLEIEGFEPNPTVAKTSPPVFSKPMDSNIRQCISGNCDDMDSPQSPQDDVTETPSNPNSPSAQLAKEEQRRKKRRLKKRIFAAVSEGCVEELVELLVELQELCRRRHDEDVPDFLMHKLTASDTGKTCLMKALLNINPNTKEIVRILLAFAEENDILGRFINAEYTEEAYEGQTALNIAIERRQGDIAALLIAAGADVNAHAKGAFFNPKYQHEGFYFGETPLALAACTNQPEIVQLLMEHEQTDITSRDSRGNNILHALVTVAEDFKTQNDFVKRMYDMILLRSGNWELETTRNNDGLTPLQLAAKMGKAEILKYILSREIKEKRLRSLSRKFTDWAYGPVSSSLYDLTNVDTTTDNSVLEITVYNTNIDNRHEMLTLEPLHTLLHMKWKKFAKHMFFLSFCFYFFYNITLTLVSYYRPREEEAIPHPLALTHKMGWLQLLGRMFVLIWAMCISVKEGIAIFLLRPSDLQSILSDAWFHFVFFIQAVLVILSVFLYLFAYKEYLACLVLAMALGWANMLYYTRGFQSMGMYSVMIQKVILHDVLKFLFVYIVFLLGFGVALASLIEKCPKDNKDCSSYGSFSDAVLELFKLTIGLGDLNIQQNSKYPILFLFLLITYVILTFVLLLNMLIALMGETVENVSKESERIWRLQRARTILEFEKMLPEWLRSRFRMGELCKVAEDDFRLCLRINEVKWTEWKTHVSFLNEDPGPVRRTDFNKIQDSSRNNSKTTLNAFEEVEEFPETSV
Experiment: Calcium flux assay (FLIPR TETRA), recombinant HEK293 cells expressing TRPV3, 2-APB response
Format: cell-based
Conditions: 2-APB at its EC80
Description: (i) In Vitro Methods-Calcium Flux Assays:
Experiments were conducted using the FLIPR TETRA®. On the day prior to the experiment, recombinant HEK293 cells that stably express human and mouse TRPV3 were removed from tissue culture flasks and plated in growth medium at 20,000 cells/well into black-walled clear-bottom 384-well BIOCOAT™ poly-D-lysine assay plates (BD Biosciences, Bedford, Mass.) using a MULTIDROP® dispenser (ThermoScientific, Waltham, Mass.). On the day of the experiment, growth medium was removed, and the no-wash FLIPR® Calcium-4 dye (λEX=470-495 nm, λEM=515-575 nm; Molecular Devices, Sunnyvale, Calif.) was added to each well using the MULTIDROP® dispenser. Cells were incubated for 90-120 minutes in the dark. The compounds were dissolved in DMSO to prepare a 10 mM stock solution. The intensity of the fluorescence was captured and digitally transferred to an interfaced PC. The peak increase in fluorescence over baseline, measured in relative fluorescence units, was calculated and expressed as the percentage of the maximal 2-APB (2-aminoethoxyldiphenyl borate) response (in the absence of compound). The concentration of 2-APB corresponds to its EC80.

Row | SMILES | IC50 [nM]
1 | COc1ncnc(OC)c1C(=O)Nc1nc(C(F)(F)F)c(CN2CCC3(CC2)COC3)s1 [Example 61, 4,6-dimethoxy-N-[5-(2-oxa-7-azaspiro[3.5]non-7-ylmethyl)-4-(trifluoromethyl)-1,3-thiazol-2-yl]pyrimidine-5-carboxamide] | 100 to 500
2 | COc1ncnc(OC)c1C(=O)Nc1nc(C(F)(F)F)c(-c2cnc(N3CCOCC3)cn2)s1 [Example 29, 4,6-dimethoxy-N-{5-[5-(morpholin-4-yl)pyrazin-2-yl]-4-(trifluoromethyl)-1,3-thiazol-2-yl}pyrimidine-5-carboxamide] | 500 to 1000
3 | COc1ncnc(OC)c1C(=O)Nc1nc(C(F)(F)F)c(CN2CC[C@H](F)C2)s1 [Example 57, N-[5-{[(3 S)-3-fluoropyrrolidin-1-yl]methyl}-4-(trifluoromethyl)-1,3-thiazol-2-yl]-4,6-dimethoxypyrimidine-5-carboxamide] | 100 to 500
4 | COc1ncnc(OC)c1C(=O)Nc1nc(C(F)(F)F)c(CNC(C)(C)C)s1 [Example 56, N-{5-[(tert-butylamino)methyl]-4-(trifluoromethyl)-1,3-thiazol-2-yl}-4,6-dimethoxypyrimidine-5-carboxamide] | > 1000
5 | COc1ncnc(OC)c1C(=O)Nc1nc(C(F)(F)F)c(C(C)(C)O)s1 [Example 116, N-[5-(2-hydroxypropan-2-yl)-4-(trifluoromethyl)-1,3-thiazol-2-yl]-4,6-dimethoxypyrimidine-5-carboxamide] | > 1000
6 | COc1ncnc(OC)c1C(=O)Nc1nc(C(F)(F)F)c(CN2CCOCC2)s1 [Example 50, 4,6-dimethoxy-N-[5-(morpholin-4-ylmethyl)-4-(trifluoromethyl)-1,3-thiazol-2-yl]pyrimidine-5-carboxamide] | > 1000

Results, then the compound that gave them:

Row | IC50 [nM] | SMILES
7 | < 50 | COc1ncnc(OC)c1C(=O)Nc1nc(C(F)(F)F)c(C(=O)c2ccc(F)cn2)s1 [Example 131, N-{5-[(5-fluoropyridin-2-yl)carbonyl]-4-(trifluoromethyl)-1,3-thiazol-2-yl}-4,6-dimethoxypyrimidine-5-carboxamide]
8 | < 50 | COc1ncnc(OC)c1C(=O)Nc1nc(C(F)(F)F)c(-c2ccc(CN3CCOCC3)cc2)s1 [Example 198, 4,6-dimethoxy-N-{5-[4-(morpholin-4-ylmethyl)phenyl]-4-(trifluoromethyl)-1,3-thiazol-2-yl}pyrimidine-5-carboxamide]
9 | < 50 | COCC#Cc1sc(NC(=O)c2c(OC)ncnc2OC)nc1C(F)(F)F [Example 15, 4,6-dimethoxy-N-[5-(3-methoxyprop-1-yn-1-yl)-4-(trifluoromethyl)-1,3-thiazol-2-yl]pyrimidine-5-carboxamide]
10 | < 50 | COc1ncnc(OC)c1C(=O)Nc1nc(C(F)(F)F)c(-c2ccnn2CC2CC2)s1 [Example 188, N-{5-[1-(cyclopropylmethyl)-1H-pyrazol-5-yl]-4-(trifluoromethyl)-1,3-thiazol-2-yl}-4,6-dimethoxypyrimidine-5-carboxamide]
11 | < 50 | COc1ncnc(OC)c1C(=O)Nc1nc(C(F)(F)F)c(-c2cn(C)nc2C(F)(F)F)s1 [Example 186, 4,6-dimethoxy-N-{5-[1-methyl-3-(trifluoromethyl)-1H-pyrazol-4-yl]-4-(trifluoromethyl)-1,3-thiazol-2-yl}pyrimidine-5-carboxamide]
12 | < 50 | COc1ncnc(OC)c1C(=O)Nc1nc(C(C)(C)C)c(F)s1 [Example 100, N-(4-tert-butyl-5-fluoro-1,3-thiazol-2-yl)-4,6-dimethoxypyrimidine-5-carboxamide]
13 | 50 to 100 | COc1ncnc(OC)c1C(=O)Nc1nc(-c2ccc(C(F)(F)F)cn2)c(C(C)=O)s1 [Example 87, N-{5-acetyl-4-[5-(trifluoromethyl)pyridin-2-yl]-1,3-thiazol-2-yl}-4,6-dimethoxypyrimidine-5-carboxamide]
14 | < 50 | COc1ncnc(OC)c1C(=O)Nc1nc(C(F)(F)F)c(-c2ccnn2C(C)C)s1 [Example 180, 4,6-dimethoxy-N-{5-[1-(propan-2-yl)-1H-pyrazol-5-yl]-4-(trifluoromethyl)-1,3-thiazol-2-yl}pyrimidine-5-carboxamide]
